Laboratory results as given in patent publication US6653258B1 (priority 1987, dated 2003).
Read-outs that look alike come from different tables or passages of the source. Marks after values point to notes of the source that are not given here.

Key:
[1] = test system: Peanut plants, cv. Tomnut; experiment: Phytotoxicity on peanut plants, root drench (Table VI); type: in vivo; settings: for phytotoxicity, linear 0-5 scale, Peanut: 100 ppm root drench, assessed one week after treatment, four replicates
Description: Peanut plants, cv. Tomnut, were propagated in John Innes No. 1 compost. […] Uniform, 8-10 day-old plants were selected for the experiments.
Phytotoxicity was assessed on a linear 0- 5 scale where grade 1 ═slight damage and grade 5 ═dead plant.

[2] = test system: Tomato plants, cv. Outdoor Girl; experiment: Phytotoxicity on tomato plants, spray to maximum retention (Table VII); settings: for phytotoxicity, linear 0-5 scale, Tomato: assessed one week after treatment, four replicates
[3] = test system: foliar fungal diseases of plants; type: in vivo; parameters: key to disease control grading, […] (VINE): 4: no disease; 3: trace −5% of disease on untreated plants; key to disease control grading, PUCCINIA RECONDITA (WHEAT) / disease control grading, VENTURIA INAEQUALIS (APPLE) / disease control grading, CERCOSPORA ARACHIDICOLA (PEANUT) / disease control grading, PH[…] (TOMATO) / disease control grading, P[…] (RICE): 4: no disease; 3: trace −5% of disease on untreated plants; 6-25% of disease on untreated plants; 1: 26-59% of disease on untreated plants; 60-100% of disease on untreated plants; settings: for disease control grading, CERCOSPORA ARACHIDICOLA (PEANUT): Cercospora arachidicola on peanut; for disease control grading, P[…] (RICE): P[…] on rice; for disease control grading, PH[…] (TOMATO): Ph[…] on tomato; for disease control grading, PUCCINIA RECONDITA (WHEAT): Puccinia recondita on wheat; for disease control grading, VENTURIA INAEQUALIS (APPLE): Venturia inaequalis on apple; for disease control grading, […] (VINE): […] on vine
Erysiphe graminis = experiment: Foliar fungal disease test on Erysiphe graminis, plants inoculated 24 hours before treatment (Table V); type: in vivo; parameters: key: 4: no disease; 3: trace −5% of disease on untreated plants; 6-25% of disease on untreated plants; 1: 26-59% of disease on untreated plants; 60-100% of disease on untreated plants
various species of plant = experiment: Plant growth regulating whole plant screen (Table VIII); type: in vivo; settings: 4000 ppm (4 kg/ha) spray, assessed after 2-6 weeks
Description: This Example illustrates the plant growth regulating properties of compounds 1, 23 and 68 of Table I when tested on a whole plant screen against various species of plant. The plant species are identified in Table VII with the leaf stage at which they are sprayed.
A formulation of each chemical was applied at 4000 ppm (4 kg/ha in a 1000 l/ha field volume) using a tracksprayer and a SS8004E (Teejet) nozzle.
After spraying the plants were grown in a glasshouse with 25° C. day/22° C. night temperature. Supplementary lighting was supplied when necessary to provide an average photoperiod of 16 hours (14 hours minimum).
After 2-6 weeks in the glasshouse, depending on species and time of year, the plants were visually assessed for morphological characteristics against a control of plant sprayed with a blank formulation.

[4] = 30 ppm spray to maximum retention
[5] = 100 ppm spray to maximum retention
[6] = 300 ppm spray to maximum retention
[7] = applied to soil (roots) and foliage one or two days before inoculation
[8] = plants inoculated 24 hours before treatment

CO/C=C(/C(=O)OC)c1ccccc1COc1ccc(Cl)cc1 [Compound 23, Table I]
phytotoxicity, linear 0-5 scale, Peanut [1]: 0.13 | phytotoxicity, linear 0-5 scale, Tomato [2, 4]: 0.3 | phytotoxicity, linear 0-5 scale, Tomato [2, 5]: 1.5 | phytotoxicity, linear 0-5 scale, Tomato [2, 6]: 2.3

CO/C=C(/C(=O)OC)c1ccccc1COc1cccc(Cl)c1 [Compound 1, Table I]
phytotoxicity, linear 0-5 scale, Peanut [1]: 0 | phytotoxicity, linear 0-5 scale, Tomato [2, 4]: 0.75 | phytotoxicity, linear 0-5 scale, Tomato [2, 5]: 0.63 | phytotoxicity, linear 0-5 scale, Tomato [2, 6]: 1.5

CO/C=C(/C(=O)OC)c1ccccc1COc1ccc(Cl)cc1 [23 (Table I)]
disease control grading, CERCOSPORA ARACHIDICOLA (PEANUT) [3, 7]: 4 | disease control grading, P[…] (RICE) [3, 7]: 4 | disease control grading, PH[…] (TOMATO) [3, 7]: 4 | disease control grading, PUCCINIA RECONDITA (WHEAT) [3, 7]: 4 | disease control grading, VENTURIA INAEQUALIS (APPLE) [3, 7]: 4 | disease control grading, […] (VINE) [3, 7]: 4 | disease control grading, ERYSIPHE GRAMINIS (BARLEY) (Erysiphe graminis; [8]): 4 | A = Apical damage (various species of plant; Tomato (TO, Ailsa Craig)): 3 (3 = 61-100%) | P = Phytotoxicity (various species of plant; Tomato (TO, Ailsa Craig)): 3 (3 = 31-50%) | R = Retardation (various species of plant; Tomato (TO, Ailsa Craig)): 3 (3 = 61-100%)

CO/C=C(/C(=O)OC)c1ccccc1COc1cccc(Cl)c1 [Compound No. 1 of Table I, (E)-methyl 2-[2-(3-chlorophenoxymethyl)phenyl]-3-methoxypropenoate]
phytotoxicity relative to the unsubstituted comparative compound ([1]; root drench, assessed one week after treatment (conclusion from Table VI)): less phytotoxic | phytotoxicity relative to the unsubstituted comparative compound ([2]; sprayed to maximum retention, assessed one week after (final) treatment (conclusion from Table VII)): less phytotoxic

CO/C=C(/C(=O)OC)c1ccccc1COc1cccnc1 [68 (Table I)]
disease control grading, CERCOSPORA ARACHIDICOLA (PEANUT) [3, 7]: 3 (trace −5% of disease on untreated plants) | disease control grading, P[…] (RICE) [3, 7]: 3 (trace −5% of disease on untreated plants) | disease control grading, PH[…] (TOMATO) [3, 7]: 3 (trace −5% of disease on untreated plants) | disease control grading, PUCCINIA RECONDITA (WHEAT) [3, 7]: 3 (trace −5% of disease on untreated plants) | disease control grading, VENTURIA INAEQUALIS (APPLE) [3, 7]: 4 | disease control grading, […] (VINE) [3, 7]: 4 | disease control grading, ERYSIPHE GRAMINIS (BARLEY) (Erysiphe graminis; [8]): 4 | T = Tillering or side shooting (various species of plant; Barley (BR, Atem)): 1 (1 = 10-30%)

CO/C=C(/C(=O)OC)c1ccccc1COc1cccc(Cl)c1 [1 (Table I)]
disease control grading, CERCOSPORA ARACHIDICOLA (PEANUT) [3, 7]: 4 | disease control grading, P[…] (RICE) [3, 7]: 4 | disease control grading, PH[…] (TOMATO) [3, 7]: 4 | disease control grading, PUCCINIA RECONDITA (WHEAT) [3, 7]: 4 | disease control grading, VENTURIA INAEQUALIS (APPLE) [3, 7]: 4 | disease control grading, […] (VINE) [3, 7]: 4 | disease control grading, ERYSIPHE GRAMINIS (BARLEY) (Erysiphe graminis; [8]): 4 | G = Greening effect (various species of plant; Maize (MZ, Earliking)): 1 (1 = 10-30%) | I = Interligular or internodal length reduction (various species of plant; Maize (MZ, Earliking)): 1 (1 = 10-30%) | R = Retardation (various species of plant; Maize (MZ, Earliking)): 1 (1 = 10-30%) | A = Apical damage (various species of plant; Tomato (TO, Ailsa Craig)): 3 (3 = 61-100%) | P = Phytotoxicity (various species of plant; Tomato (TO, Ailsa Craig)): 2 (2 = 11-30%) | R = Retardation (various species of plant; Tomato (TO, Ailsa Craig)): 3 (3 = 61-100%) | T = Tillering or side shooting (various species of plant; Tomato (TO, Ailsa Craig)): 1 (1 = 10-30%)

CO/C=C(/C(=O)OC)c1ccccc1COc1ccccc1 [comparative compound, reference compound]
phytotoxicity, linear 0-5 scale, Peanut [1]: 1.5 | phytotoxicity, linear 0-5 scale, Tomato [2, 4]: 2.8 | phytotoxicity, linear 0-5 scale, Tomato [2, 5]: 3.4 | phytotoxicity, linear 0-5 scale, Tomato [2, 6]: 3.0

CCOc1cc(OCc2ccccc2/C(=C\OC)C(=O)OC)ccc1OC [170 (Table I)]
disease control grading, CERCOSPORA ARACHIDICOLA (PEANUT) [3, 7]: 4 | disease control grading, P[…] (RICE) [3, 7]: 3 (trace −5% of disease on untreated plants) | disease control grading, PH[…] (TOMATO) [3, 7]: 4 | disease control grading, PUCCINIA RECONDITA (WHEAT) [3, 7]: 0 (60-100% of disease on untreated plants) | disease control grading, VENTURIA INAEQUALIS (APPLE) [3, 7]: 4 | disease control grading, […] (VINE) [3, 7]: 4 | disease control grading, ERYSIPHE GRAMINIS (BARLEY) (Erysiphe graminis; [8]): 4

CO/C=C(/C(=O)OC)c1ccccc1COc1cccc(Oc2cccc(C)c2)c1 [181 (Table I)]
disease control grading, CERCOSPORA ARACHIDICOLA (PEANUT) [3, 7]: 4 | disease control grading, P[…] (RICE) [3, 7]: 3 (trace −5% of disease on untreated plants) | disease control grading, PH[…] (TOMATO) [3, 7]: 4 | disease control grading, PUCCINIA RECONDITA (WHEAT) [3, 7]: 4 | disease control grading, VENTURIA INAEQUALIS (APPLE) [3, 7]: 4 | disease control grading, […] (VINE) [3, 7]: 4 | disease control grading, ERYSIPHE GRAMINIS (BARLEY) (Erysiphe graminis; [8]): 4

CCN(CC)c1cccc(OCc2ccccc2/C(=C\OC)C(=O)OC)c1 [169 (Table I)]
disease control grading, CERCOSPORA ARACHIDICOLA (PEANUT) [3, 7]: 4 | disease control grading, P[…] (RICE) [3, 7]: 0 (60-100% of disease on untreated plants) | disease control grading, PH[…] (TOMATO) [3, 7]: 4 | disease control grading, PUCCINIA RECONDITA (WHEAT) [3, 7]: 3 (trace −5% of disease on untreated plants) | disease control grading, VENTURIA INAEQUALIS (APPLE) [3, 7]: 4 | disease control grading, […] (VINE) [3, 7]: 4 | disease control grading, ERYSIPHE GRAMINIS (BARLEY) (Erysiphe graminis; [8]): 1 (26-59% of disease on untreated plants)

CO/C=C(/C(=O)OC)c1ccccc1COc1c(Cl)cccc1Cl [44 (Table I)]
disease control grading, CERCOSPORA ARACHIDICOLA (PEANUT) [3, 7]: 3 (trace −5% of disease on untreated plants) | disease control grading, P[…] (RICE) [3, 7]: 2 (6-25% of disease on untreated plants) | disease control grading, PH[…] (TOMATO) [3, 7]: 3 (trace −5% of disease on untreated plants) | disease control grading, PUCCINIA RECONDITA (WHEAT) [3, 7]: 4 | disease control grading, VENTURIA INAEQUALIS (APPLE) [3, 7]: 4 | disease control grading, […] (VINE) [3, 7]: 4 | disease control grading, ERYSIPHE GRAMINIS (BARLEY) (Erysiphe graminis; [8]): 4

CCCN(Cc1ccccc1/C(=C\OC)C(=O)OC)c1ccccc1 [4 (Table III)]
disease control grading, CERCOSPORA ARACHIDICOLA (PEANUT) ([3]; 25 ppm foliar spray only): 0* (60-100% of disease on untreated plants) | disease control grading, P[…] (RICE) ([3]; 25 ppm foliar spray only): 0* (60-100% of disease on untreated plants) | disease control grading, PH[…] (TOMATO) ([3]; 25 ppm foliar spray only): 0* (60-100% of disease on untreated plants) | disease control grading, PUCCINIA RECONDITA (WHEAT) ([3]; 25 ppm foliar spray only): 0* (60-100% of disease on untreated plants) | disease control grading, VENTURIA INAEQUALIS (APPLE) ([3]; 25 ppm foliar spray only): 3* (trace −5% of disease on untreated plants) | disease control grading, […] (VINE) ([3]; 25 ppm foliar spray only): 1* (26-59% of disease on untreated plants) | disease control grading, ERYSIPHE GRAMINIS (BARLEY) (Erysiphe graminis; 25 ppm foliar spray only): 0* (60-100% of disease on untreated plants)

CO/C=C(/C(=O)OC)c1ccccc1COc1cccc(Br)n1 [176 (Table I)]
disease control grading, P[…] (RICE) [3, 7]: 4 | disease control grading, PH[…] (TOMATO) [3, 7]: 4 | disease control grading, PUCCINIA RECONDITA (WHEAT) [3, 7]: 4 | disease control grading, VENTURIA INAEQUALIS (APPLE) [3, 7]: 4 | disease control grading, […] (VINE) [3, 7]: 4 | disease control grading, ERYSIPHE GRAMINIS (BARLEY) (Erysiphe graminis; [8]): 4
